From patent publication US20160144031A1, “Photo-Responsive Compounds” (priority 2013, published 2016)

Experiments:
[1] = Photolysis rate comparison: Xe flash lamp, 546±10 nm, conversion to hydroxocobalamin monitored at 350 nm; assay type: physicochemical; settings: 10 μM
Method: General procedure: Photolysis was performed using an Oriel Xe flash lamp (800 mJ, 62 Hz) with a selective bandpass filter for 546±10 nm. The conversion of alkylcobalamin to hydroxocoabalmin was determined by monitoring the absorption of the mixture at 350 nm using Perkin Elemer Lambda 2 UV/Vis spectrophotometer. (Taylor, R. T.; Smucker, L.; Hanna, M. L.; Gill, J. Arch. Biochem. Biophys. 1973, 156, 521-533.)

[2] = Photolysis (Xe flash lamp, bandpass filters) and dark storage assessed by UV-Vis and LC/MS; assay type: physicochemical; settings: for photolysis at 546 nm (LC/MS): 546±10 nm (20 min); for photolysis at 546 nm (LC/MS) / photolysis at 646 nm (UV-Vis, LC/MS) / photolysis at 730 nm (LC/MS) / photolysis at 780 nm (LC/MS): 10 μM; for photolysis at 646 nm (UV-Vis, LC/MS): 646±10 nm (20 min); for photolysis at 730 nm (LC/MS): 730±10 nm (150 min); for photolysis at 780 nm (LC/MS): 780±10 nm (3 h)
Method: […] The conversion of alkylcobalamin to hydroxocoabalmin was determined by monitoring the absorption of the mixture at 350 nm using Perkin Elemer Lambda 2 UV/Vis spectrophotometer. (Taylor, R. T.; Smucker, L.; Hanna, M. L.; Gill, J. Arch. Biochem. Biophys. 1973, 156, 521-533.)
[…] The resulting sample (100 μL) was analyzed by LC/MS using a linear gradient binary solvent system (solvent A: 0.1% formic acid/H2O; solvent B: 0.1% formic acid/CH3CN) with a ratio of A:B that varied from 97:3 (0-5 min) to 3:97 (5-18 min).

HeLa cells = test: Treatment of HeLa cells with colchicine (tubulin staining); assay type: cell-based; settings: increasing colchicine
Method: Treatment of HeLa cells with colchicine. […] Cells are washed 2×1 mL with PBS and blocked for 1 h in 5% donkey serum. […] Metamorph software is employed for imaging analysis.

[3] = administered by IV; cited from earlier work

With coenzyme B12-TAMRA conjugate [AdoCbl-1] the “rate of photolysis at 546 nm” value [1] was 2.9±0.3 μM^−1/m, the “photolysis at 546 nm (LC/MS)” value [2] was “produces these products” and the “photolysis at wavelengths beyond 600 nm (LC/MS)” value [2] was “resistant to photolysis”.
In the case of “Coenzyme B12-ATTO 725 Conjugate [AdoCbl-3]”, the “photolysis at 546 nm (LC/MS)” value [2] is reported as “complete photolysis”, the “photolysis at 646 nm (UV-Vis, LC/MS)” value [2] is reported as “partial photolysis” and the “photolysis at 730 nm (LC/MS)” value [2] is reported as “complete photolysis”. For the same compound, the “photolysis at 780 nm (LC/MS)” value [2] was “not at 780 nm”.
For “Coenzyme B12-SulfoCy5 Conjugate [AdoCbl-2]”, the “photolysis at 546 nm (LC/MS)” value [2] was “produced adenosine products”, the “photolysis at 646 nm (UV-Vis, LC/MS)” value [2] was “produced adenosine products” and the “photolysis at 730 nm (LC/MS)” value [2] was “unaffected”. The “photolysis at 780 nm (LC/MS)” value [2] was “unaffected”.
Compound `C/C1=C2/[N-][C@H]([C@H](CC(N)=O)[C@@]2(C)CCC(=O)NC[C@H](C)OP(=O)([O-])O[C@H]2[C@@H](O)[C@@H](n3cnc4cc(C)c(C)cc43)O[C@@H]2CO)[C@]2(C)N=C(/C(C)=C3N=C(/C=C4N=C1[C@@H](CCC(N)=O)C\4(C)C)[C@@H](CCC(N)=O)[C@]\3(C)CC(N)=O)[C@@H](CCC(N)=O)[C@]2(C)CC(N)=O.[CH3-].[Co+3]` [MeCbl, methylcobalamin] has a photolysis rate [1] of 31700 ± 3300 M⁻¹ s⁻¹.
In the case of `COc1cc2c(c(OC)c1OC)-c1ccc(OC)c(=O)cc1[C@@H](NC(C)=O)CC2` [colchicine], the “effect on tubulin networks” value (HeLa cells) is reported as “tubulin networks become disrupted”.
With `C/C1=C2/[N-]C([C@H](CC(N)=O)[C@@]2(C)CCC(=O)NC[C@@H](C)OP(=O)([O-])O[C@H]2[C@@H](O)[C@@H](n3cnc4cc(C)c(C)cc43)O[C@@H]2CO)[C@]2(C)N=C(/C(C)=C3N=C(/C=C4N=C1[C@@H](CCC(N)=O)C\4(C)C)[C@@H](CCC(N)=O)[C@]\3(C)CC(N)=O)[C@@H](CCC(N)=O)[C@]2(C)CC(N)=O.[CH2-][C@H]1O[C@@H](n2cnc3c(N)ncnc32)[C@@H](O)[C@@H]1O.[Co+3]` [AdoCbl, Coenzyme B12, reference compound] the “rate of photolysis at 546 nm” value [1] was 1.7±0.2 μM^−1/m, the “photolysis at 546 nm (LC/MS)” value [2] was “produces these products” and the “photolysis at wavelengths beyond 600 nm (LC/MS)” value [2] was “resistant to photolysis”.
For “Coenzyme B12-Dylight® 800 Conjugate [AdoCbl-4]”, the “photolysis at 546 nm (LC/MS)” value [2] was “generated the expected adenosine products”, the “photolysis at 646 nm (UV-Vis, LC/MS)” value [2] was “resistant to photolysis” and the “photolysis at 730 nm (LC/MS)” value [2] was “Partial photolysis”. The “photolysis at 780 nm (LC/MS)” value [2] was “generated the expected adenosine products”.
For “αMSH: 13 amino acid α-melanocyte stimulating hormone”, the half life [3] is listed as “only a few minutes”.
